# In PubChem BioAssay (NCI):
#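 Five compound concentrations were applied to cells in 96-well plates for 48 hours; endpoints were derived by simple linear interpolation of the resulting dose-response curve. The concentration for full growth arrest is given as TGI.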
# Experiments:
# Assay in all cases: growth of human tumour cells (NCI), 48 h
# [1] = test system: HL-60(TB) leukemia
# [2] = test system: MOLT-4 leukemia
# [3] = test system: SNB-19 CNS
# [4] = test system: HOP-92 NSCLC
# [5] = test system: COLO 205 colon
# [6] = test system: A549 NSCLC
# [7] = test system: OVCAR-8 ovarian
# [8] = test system: RPMI-8226 leukemia
# [9] = test system: T-47D breast
# [10] = test system: SK-MEL-28 melanoma
# [11] = test system: HS 578T breast
# [12] = test system: K-562 leukemia
# [13] = test system: SN12C renal
# [14] = test system: BT-549 breast
# [15] = test system: NCI-H460 lung
# [16] = test system: OVCAR-3 ovarian
# [17] = test system: TK-10 renal
# [18] = test system: SK-MEL-2 melanoma
# [19] = test system: UACC-62 melanoma
# [20] = test system: A498 renal
# [21] = test system: SR leukemia
# [22] = test system: MDA-MB-231 breast
# [23] = test system: UACC-257 melanoma
# [24] = test system: 786-0 renal
# [25] = test system: LOX IMVI melanoma
# [26] = test system: NCI-H23 lung
# [27] = test system: IGROV1 ovarian
# [28] = test system: HT29 colon
# [29] = test system: NCI/ADR-RES ovarian
# [30] = test system: OVCAR-5 ovarian
# [31] = test system: OVCAR-4 ovarian
# [32] = test system: DU-145 prostate
# [33] = test system: HCT-116 colon
# [34] = test system: M14 melanoma
# [35] = test system: EKVX NSCLC
# [36] = test system: HCC-2998 colon
# [37] = test system: CAKI-1 renal
# [38] = test system: NCI-H522 lung
# [39] = test system: SW-620 colon
# [40] = test system: CCRF-CEM leukemia
# [41] = test system: MDA-MB-435
# [42] = test system: SF-539 CNS
# [43] = test system: PC-3 prostate
# [44] = test system: MDA-N
# [45] = test system: SK-MEL-5 melanoma
# [46] = test system: HCT-15 colon
# [47] = test system: RXF 393 renal
# [48] = test system: SF-295 CNS
# [49] = test system: NCI-H226 lung
# [50] = test system: HOP-62 NSCLC
# [51] = test system: ACHN renal
# [52] = test system: U251 CNS
# [53] = test system: SK-OV-3 ovarian
# [54] = test system: MCF7 breast
# [55] = test system: SNB-75 CNS
# [56] = test system: MALME-3M melanoma
# [57] = test system: UO-31 renal
# [58] = test system: KM12 colon
# [59] = test system: SF-268 CNS
smiles,measurement,setting,value
CCCCn1c(C)c(C(=O)OCC)s/c1=N/Nc1nc2ccccc2nc1-c1ccccc1,TGI,[1],> 100 µM
same,TGI,[2],> 100 µM
same,TGI,[3],> 100 µM
same,TGI,[4],> 100 µM
same,TGI,[5],> 100 µM
same,TGI,[6],> 100 µM
same,TGI,[7],> 100 µM
same,TGI,[8],> 100 µM
same,TGI,[9],> 100 µM
same,TGI,[10],> 100 µM
same,TGI,[11],60.3 µM
same,TGI,[12],> 100 µM
same,TGI,[13],> 100 µM
same,TGI,[14],> 100 µM
same,TGI,[15],> 100 µM
same,TGI,[16],> 100 µM
same,TGI,[17],> 100 µM
same,TGI,[18],> 100 µM
same,TGI,[19],> 100 µM
same,TGI,[20],> 100 µM
same,TGI,[21],> 100 µM
same,TGI,[22],> 100 µM
same,TGI,[23],> 100 µM
same,TGI,[24],> 100 µM
same,TGI,[25],> 100 µM
same,TGI,[26],> 100 µM
same,TGI,[27],> 100 µM
same,TGI,[28],> 100 µM
same,TGI,[29],> 100 µM
same,TGI,[30],> 100 µM
same,TGI,[31],> 100 µM
same,TGI,[32],94.1 µM
same,TGI,[33],> 100 µM
same,TGI,[34],> 100 µM
same,TGI,[35],> 100 µM
same,TGI,[36],> 100 µM
same,TGI,[37],> 100 µM
same,TGI,[38],> 100 µM
same,TGI,[39],> 100 µM
same,TGI,[40],> 100 µM
same,TGI,[41],> 100 µM
same,TGI,[42],> 100 µM
same,TGI,[43],> 100 µM
same,TGI,[44],> 100 µM
same,TGI,[45],> 100 µM
same,TGI,[46],> 100 µM
same,TGI,[47],> 100 µM
same,TGI,[48],> 100 µM
same,TGI,[49],> 100 µM
same,TGI,[50],83.5 µM
same,TGI,[51],> 100 µM
same,TGI,[52],> 100 µM
same,TGI,[53],> 100 µM
same,TGI,[54],> 100 µM
same,TGI,[55],> 100 µM
O=[N+]([O-])c1ccc(C2=NOC(c3ccccc3F)N2C23CC4CC(CC(C4)C2)C3)cc1 (configuration not stated),TGI,[1],> 100 µM
same,TGI,[2],> 100 µM
same,TGI,[4],> 100 µM
same,TGI,[5],> 100 µM
same,TGI,[6],> 100 µM
same,TGI,[7],> 100 µM
same,TGI,[8],> 100 µM
same,TGI,[9],> 100 µM
same,TGI,[10],> 100 µM
same,TGI,[11],> 100 µM
same,TGI,[12],> 100 µM
same,TGI,[13],> 100 µM
same,TGI,[14],> 100 µM
same,TGI,[15],> 100 µM
same,TGI,[16],> 100 µM
same,TGI,[17],> 100 µM
same,TGI,[18],> 100 µM
same,TGI,[19],> 100 µM
same,TGI,[20],> 100 µM
same,TGI,[21],> 100 µM
same,TGI,[22],> 100 µM
same,TGI,[23],> 100 µM
same,TGI,[56],> 100 µM
same,TGI,[24],> 100 µM
same,TGI,[25],> 100 µM
same,TGI,[26],> 100 µM
same,TGI,[27],> 100 µM
same,TGI,[28],> 100 µM
same,TGI,[29],> 100 µM
same,TGI,[57],> 100 µM
same,TGI,[30],> 100 µM
same,TGI,[31],> 100 µM
same,TGI,[32],> 100 µM
same,TGI,[33],> 100 µM
same,TGI,[58],> 100 µM
same,TGI,[34],> 100 µM
same,TGI,[35],> 100 µM
same,TGI,[36],> 100 µM
same,TGI,[37],> 100 µM
same,TGI,[38],> 100 µM
same,TGI,[39],> 100 µM
same,TGI,[40],> 100 µM
same,TGI,[41],> 100 µM
same,TGI,[42],> 100 µM
same,TGI,[43],> 100 µM
same,TGI,[44],> 100 µM
same,TGI,[59],> 100 µM
same,TGI,[45],> 100 µM
same,TGI,[46],> 100 µM
same,TGI,[48],> 100 µM
same,TGI,[49],> 100 µM
same,TGI,[50],> 100 µM
same,TGI,[51],> 100 µM
same,TGI,[52],> 100 µM
same,TGI,[53],> 100 µM
same,TGI,[54],> 100 µM
same,TGI,[55],> 100 µM
